Data taken from US6602889B1, “5-heteroaryl substituted indoles” (H. Lundbeck A.S., priority 1998, dated 2003).
Counter-ions that a name gives are not always drawn. Like-named read-outs stand apart in the source and are kept apart here.

Key:
[1] = target: T1, serotonin S2 (5-HT2A) receptors (Rattus norvegicus, UniProt P14842); test: Inhibition of 3H-ketanserin binding to serotonin S2 (5-HT2A) receptors in rat cortex in vitro
T1 construct: Male Wistar (Mol:Wist) rats (125-250 g) are sacrificed and cortical tissue is dissected and weighed; from tissue; host or cells: rat cortex membranes (male Wistar rats)
Description: Inhibition of ^3H-Ketanserin Binding to Serotonin S2 (5-HT2Å) Receptors in Rat Cortex in vitro
By this method the inhibition by drugs of the binding of ^3H-ketanserin (0.5 nM) to serotonin S2 (5-HT2) receptors in membranes from rat cortex is determined in vitro.
The tissue is homogenized (Ultra Turrax, 10 sec) in 10 mL of ice cold 50 mM tris buffer pH 7.7 (at 25° C.). The centrifuge glassware used in this step has been rinsed by sonication for 10 min in ethanol. The homogenate is centrifuged twice at 20,000 g for 10 min. at 4° C., with rehomogenization of the pellet in 10 mL icecold buffer. The final pellet is homogenized in 250 vol (w/v) icecold buffer.
Incubation tubes (96 deep well titer plate) kept on ice receive […] of ^3H ketanserin (final concentration 0.5 nM).
The binding experiment is initiated by addition of […] of tissue suspension (final tissue content corresponds to 4 mg original tissue) and by placing the 96 deep well titer plate in a 37° C. water bath. All tests are made in triplicates.
After incubation for 30 min, the samples are filtered on a Brandel harvester under vacuum (18 inch. Hg) through printed filter mat B (13 mm). Titerplate and filter are washed 2×10 sec. flow 50 L/h with ice cold buffer.
The printed filter mat with purred labelled tissue are dried for 1 h at 110° C. and hereafter placed in a sample bag with Meltilex B/HS 14.5 g and melted together on the T-tray heat seal.
Specific binding is obtained by subtracting the nonspecific binding in the presence of 1 mM mianserin.
(§1) For determination of the inhibition of binding, five concentrations of drugs covering 3 decades are used.
^3H-ketanserin=(ethylene-^3H)-ketanserin hydrochloride from New England Nuclear, specific activity 60-80 Ci/mmol.

dopamine D2 receptors = target: T2, dopamine D2 receptors (Rattus norvegicus, UniProt P61169); test: Inhibition of 3H-spiperone binding to dopamine D2 receptors in rat corpus striatum in vitro
T2 construct: Male Wistar (Mol:Wistar) rats (125-250 g) are sacrificed and striatal tissue is dissected and weighed; from tissue; host or cells: rat corpus striatum membranes (male Wistar rats)
Description: Inhibition of ^3H-Spiperone Binding to Dopamine D2 Receptors in Rat Corpus Striatum in vitro
By this method, the inhibition by drugs of the binding of ^3H -spiperone (=^3H-spiro-peridol) (0.5 nM) to dopamine D-2 receptors in membranes from rat corpus striatum is determined in vitro. […] Pharmacol. Toxicol. […] This is a test for dopamine D2 receptor binding affinity in vitro.
The tissue is homogenized (Ultra Turrax, 10 sec.) in 10 mL of ice-cold 50 mM K-phosphate buffer pH 7.4 (at 25° C.). The homogenate is centrifuged twice at 20,000 g for 10 min at 4° C. with rehomogenization of the pellet in 10 mL ice-cold buffer. The final pellet is homogenized in 1300 vol (w/v) ice-cold buffer.
The binding experiment is initiated by addition of 100 μl of ^3H-spiperone (final concentration 0.5 nM) and by placing the tubes in a 37° C. water bath. […] The tubes are rinsed with 5 mL ice-cold buffer which are then poured on the filters. Thereafter, the filters are washed with 2×5 mL of buffer. The filters are placed in counting vials and 4 mL of appropriate scintillation fluid (e.g. Picofluor ™15) are added. After shaking for 1 h and storage for 2 hrs in the dark, the content of radioactivity is determined by liquid scintillation counting. Specific binding is obtained by subtracting the nonspecific binding in the presence of 10 μM of 6,7-ADTN.
For determination of the inhibition of binding, five concentrations of drugs covering 3 orders of magnitude are used.
England, specific activity 15-25 Ci/mmol.

α1-adrenoceptors = test: Inhibition of 3H-prazosin binding to α1-adrenoceptors in rat brain in vitro; settings: 3H-prazosin 0.25 nM, membranes from rat brain
Description: Method and results in Hyttel & Larsen, J. Neurochem.
The tissue is homogenized (Ultra Turrax, 10 se) in 10 mL of ice cold 50 mM tris buffer pH 7.7 (at 25° C.). The homogenate is centrifuged twice at 20,000 g for 10 min at 4° C. with rehomogenization of the pellet in 10 ml icecold buffer. The final pellet is homogenized in 250 vol (w/v) icecold buffer.
The binding experiment is initiated by addition of […] of tissue suspension (final tissue content corresponds to 3 mg original tissue) and by placing the 96 deep well titer plate in a 25 ° C. water bath. All tests are made in triplicates. After incubation for 20 min, the samples are filtered on a Brandel harvester under vacuum (18 inch. Hg) through printed filtermat B (13 mm). Titerplates and filter are washed 1×10 sec flow 50 L/h with ice cold buffer.
The filter mat is dried for 1 h at 110° C. and then placed in a sample bag with Meltilex B/HS (14.5 g) and melted together on the T-Tray heat sealer.
as §1

[2] = 3H-ketanserin 0.5 nM, membranes from rat cortex, read-out: IC50 values in nM, 5-HT2A
[3] = 3H-spiperone 0.5 nM, membranes from rat corpus striatum, read-out: IC50 values in nM, D2

T1 sequence (P14842 whole entry): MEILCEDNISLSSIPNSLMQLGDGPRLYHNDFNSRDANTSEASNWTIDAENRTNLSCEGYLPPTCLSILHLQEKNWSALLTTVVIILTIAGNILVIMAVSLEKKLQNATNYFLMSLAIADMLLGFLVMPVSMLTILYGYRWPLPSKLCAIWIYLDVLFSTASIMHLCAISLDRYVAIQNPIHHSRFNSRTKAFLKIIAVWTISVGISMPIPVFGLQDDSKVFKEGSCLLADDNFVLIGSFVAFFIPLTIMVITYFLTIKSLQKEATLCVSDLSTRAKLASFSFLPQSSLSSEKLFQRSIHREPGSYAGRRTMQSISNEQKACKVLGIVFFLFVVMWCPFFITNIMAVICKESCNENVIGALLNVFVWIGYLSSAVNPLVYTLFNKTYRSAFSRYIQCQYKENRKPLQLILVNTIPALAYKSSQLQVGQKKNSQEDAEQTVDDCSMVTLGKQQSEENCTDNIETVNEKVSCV
T2 sequence (P61169 whole entry): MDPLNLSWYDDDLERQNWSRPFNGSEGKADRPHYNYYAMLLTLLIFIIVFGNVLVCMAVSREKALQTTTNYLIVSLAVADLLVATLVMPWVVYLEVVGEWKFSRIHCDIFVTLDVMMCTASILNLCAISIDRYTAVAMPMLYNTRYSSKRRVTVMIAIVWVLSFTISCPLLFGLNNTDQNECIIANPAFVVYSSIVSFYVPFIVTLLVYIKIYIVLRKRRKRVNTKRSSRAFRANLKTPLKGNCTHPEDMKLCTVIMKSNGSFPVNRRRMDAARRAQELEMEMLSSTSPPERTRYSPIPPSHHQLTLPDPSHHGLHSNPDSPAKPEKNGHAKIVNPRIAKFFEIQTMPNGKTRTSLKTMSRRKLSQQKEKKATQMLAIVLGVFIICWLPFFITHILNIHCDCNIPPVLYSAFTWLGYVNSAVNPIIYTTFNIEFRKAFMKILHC

| Structure (SMILES) | melting point [°C] | IC50 [1, 2] [nM] | IC50 (dopamine D2 receptors; [3]) [nM] | IC50 (α1-adrenoceptors) [nM] | IC50 [1] [nM] | IC50 (dopamine D2 receptors) [nM] |
| --- | --- | --- | --- | --- | --- | --- |
| Cn1nnnc1Cc1ccc2c(c1)c(C1CCN(CCN3CCNC3=O)CC1)cn2-c1ccc(F)cc1 (as salt: fumarate) [Compound 23c, 1-[2-[4-[(-(4-fluorophenyl)-5-[(1-methyltetrazol-5-yl)methyl]-1H-indol-3-yl]-1-piperidinyl]ethyl]-2-imidazolidinone 2.5 fumarate] | 169 to 171 | – | – | – | – | – |
| Cn1nnc(-c2ccc3c(c2)c(C2=CCN(CCN4CCNC4=O)CC2)cn3-c2ccncc2)n1 [Compound 5a, 1-[2-[4-[5-(2-Methyltetrazol-5-yl)-1-(4-pyridyl)-1H-indol-3-yl]-1,2,3,6-tetrahydro-1-pyridinyl]ethyl]-2-imidazolidinone] | 177 to 178 | > 100 | > 100 | 12 | – | – |
| Cn1nnc(-c2ccc3c(c2)c(C2CCN(CCN4CCNC4=O)CC2)cn3-c2ccncc2)n1 [Compound 6a, 1-[2-[4-[5-(2-Methyltetrazol-5-yl)-1-(4-pyridyl)-1H-indol-3-yl]-1-piperidinyl]ethyl]-2-imidazolidinone] | 204 to 206 | > 100 | > 100 | 18 | – | – |
| Cn1nnc(CCN2CC=C(c3cn(-c4ccc(F)cc4)c4ccc(-c5nnn(C)n5)cc34)CC2)n1 [Compound 17a, 1-(4-Fluorophenyl)-5-(2-methyltetrazol-5-yl)-3-[1-[2-(2-methyltetrazo-5-yl)ethyl]-1,2,3,6-tetrahydropyridin-4-yl]-1H-indole] | – | 70 | 20 | 4 | – | – |
| Cn1nnc(-c2ccc3c(c2)c(C2=CCN(CCc4nnnn4C)CC2)cn3-c2ccc(F)cc2)n1 [Compound 17b, 1-(4-Fluorophenyl)-5-(2-methyltetrazol-5-yl)-3-[1-[2-(1-methyltetrazol-5-yl)ethyl]-1,2,3,6-tetrahydropyridin-4-yl]-1H-indole, fumarate] | – | 450 | 97 | 4.9 | – | – |
| CN1CC=C(c2cn(-c3ccc(F)cc3)c3ccc(-c4nnn(C)n4)cc23)CC1 [Compound 21b] | 142 to 144 | – | – | 9.4 | > 100 | 14 |
| Cn1nnc(-c2ccc3c(c2)c(C2=CCN(CCN4CCNC4=O)CC2)cn3-c2ccc(F)cc2)n1 [Compound 22a, 1-[2-[4-[1-(4-Fluorophenyl)-5-(2-methyltetrazol-5-yl)-1H-indol-3-yl]-1,2,3,6-tetrahydropyridin-1-yl]ethyl]-2-imidazolidinone] | – | 210 | 37 | 1.5 | – | – |
| Cn1nnnc1-c1ccc2c(c1)c(C1=CCN(CCN3CCNC3=O)CC1)cn2-c1ccc(F)cc1 [Compound 22b, 1-[2-[4-[1-(4-fluorophenyl)-5-(1-methyltetrazol-5-yl)-1H-indol-3-yl]-1,2,3,6-tetrahydropyridin-1-yl]ethyl]-2-imidazolidinone] | 198 to 200 | 38 | 4.7 | 0.75 | – | – |
| CCn1nnc(-c2ccc3c(c2)c(C2=CCN(CCN4CCNC4=O)CC2)cn3-c2ccc(F)cc2)n1 [Compound 22c] | 179 to 181 | > 100 | 110 | 7.8 | – | – |
| Cn1nnnc1Cc1ccc2c(c1)c(C1=CCN(CCN3CCNC3=O)CC1)cn2-c1ccc(F)cc1 [Compound 22d, 1-[2-[4-[1-(4-fluorophenyl)-5-[(1-methyltetrazol-5-yl)methyl]-1H-indol-3-yl]-1,2,3,6-tetrahydropyridin-1-yl]ethyl]-2-imidazolidinone] | 174 to 176 | 18 | 5 | 0.72 | – | – |
| Cn1nnc(Cc2ccc3c(c2)c(C2=CCN(CCN4CCNC4=O)CC2)cn3-c2ccc(F)cc2)n1 [Compound 22e, 1-[2-[4-[1-(4-fluorophenyl)-5-[(2-methyltetrazol-5-yl)methyl]-1H-indol-3-yl]-1,2,3,6-tetrahydropyridin-1-yl]ethyl]-2-imidazolidinone] | 129 to 131 | 5 | 8.6 | 1.5 | – | – |
| Cn1ncc(-c2ccc3c(c2)c(C2=CCN(CCN4CCNC4=O)CC2)cn3-c2ccc(F)cc2)n1 [Compound 22g, 1-[2-[4-[1-(4-fluorophenyl)-5-(2-methyltriazol-4-yl)-1H-indol-3-yl]-1,2,3,6-tetrahydropyridin-1-yl]ethyl]-2-imidazolidinone] | 175 to 177 | 94 | 28 | – | – | – |
| CCn1ncc(-c2ccc3c(c2)c(C2=CCN(CCN4CCNC4=O)CC2)cn3-c2ccc(F)cc2)n1 [Compound 22i, 1-[2-[4-[5-(2-ethyltriazol-4-yl)-1-(4-fluorophenyl)-1H-indol-3-yl]-1,2,3,6-tetrahydropyridin-1-yl]ethyl]-2-imidazolidinone] | 143 to 145 | 22 | 51 | – | – | – |
| CCn1nnc(-c2ccc3c(c2)c(C2CCN(CCN4CCNC4=O)CC2)cn3-c2ccc(F)cc2)n1.Cl.Cl [Compound 23a, 1-[2-[4-[5-(2-ethyltetrazol-5-yl)-1-(4-fluorophenyl)-1H-indol-3-yl]-1-piperidinyl]ethyl]-2-imidazolidinone dihydrochloride] | 172 to 174 | 53 | > 100 | 6.1 | – | – |
| CN1CCC(c2cn(-c3ccc(F)cc3)c3ccc(-c4nnn(C)n4)cc23)CC1 [Compound 23b, 1-(4-fluorophenyl)-3-(1-methyl-4-piperidinyl)-5-(2-methyltetrazol-5-yl)-1H-indole] | – | > 100 | > 100 | 7.1 | – | – |
| Cn1nnnc1Cc1ccc2c(c1)c(C1CCN(CCN3CCNC3=O)CC1)cn2-c1ccc(F)cc1 [Compound 23c, 1-[2-[4-[(-(4-fluorophenyl)-5-[(1-methyltetrazol-5-yl)methyl]-1H-indol-3-yl]-1-piperidinyl]ethyl]-2-imidazolidinone 2.5 fumarate] | – | 8.3 | 3.7 | 0.5 | – | – |
| COc1cc2nc(N3CCN(C(=O)c4ccco4)CC3)nc(N)c2cc1OC [Prazosin, prazosin, reference compound] | – | – | 11000 | 0.36 | – | – |
| O=C1NCCN1CCN1CCC(c2cn(-c3ccc(F)cc3)c3ccc(Cl)cc23)CC1 [Sertindole, sertindole, reference compound] | – | – | – | 3.4 | – | – |
